Results as given in patent publication US9469650B2, “Melampomagnolide B derivatives” (BOARD OF TRUSTEES OF THE UNIVERSITY OF ARKANSAS, priority 2013, dated 2016).

Tests used:
[1] = test system: CCRF-CEM
[2] = test system: SW-620
[3] = test system: BT-549
[4] = test system: CAKI-1
[5] = test system: K-562
[6] = test system: NCI-H460
[7] = test system: IGROV1
[8] = test system: SK-MEL-2
[9] = test system: UACC-257
[10] = test system: UACC-62
[11] = test system: OVCAR-5
[12] = test system: OVCAR-8
[13] = test system: NCI/ADR-RES
[14] = test system: HT29
[15] = test system: A498
[16] = test system: NCI-H226
[17] = test system: SK-OV-3
[18] = test system: U251
[19] = test system: MCF7
[20] = test system: LOX IMVI
[21] = test system: MALME-3M; assay: panel of 60 human tumor cell lines, growth inhibition (Melanoma); conditions: MALME-3M
[22] = test system: A549/ATCC
[23] = test system: 786-0
[24] = test system: SNB-19
[25] = test system: M14
[26] = test system: HS 578T
[27] = test system: NCI-H522
[28] = test system: SF-295
[29] = test system: MDA-MB-231/ATCC
[30] = test system: HOP-92
[31] = test system: HCC-2998
[32] = test system: NCI-H322M
[33] = test system: MOLT-4
[34] = test system: DU-145
[35] = test system: PC-3
[36] = test system: SF-268
[37] = test system: T-47D
[38] = test system: UO-31
[39] = test system: SK-MEL-28
[40] = test system: SNB-75
[41] = test system: RXF 393
[42] = test system: SN12C
[43] = test system: NCI-H23
[44] = test system: HCT-15

C=C1C(=O)O[C@H]2[C@H]1CC/C(COC(=O)NCCN1CCCCC1)=C\CC[C@@]1(C)O[C@@H]21 [JVM 2-13]
CC50 [1]: > 100 µM
CC50 [2]: 50.3 µM
CC50 [3]: 44.3 µM
CC50 [4]: 40.4 µM
CC50 [5]: > 100 µM
CC50 [6]: 78.1 µM
CC50 [7]: 81.2 µM
CC50 [8]: 69.7 µM
CC50 [9]: 49.9 µM
CC50 [10]: 50.1 µM
CC50 [11]: 55.2 µM
CC50 [12]: 58.4 µM
CC50 [13]: > 100 µM
CC50 [14]: 50.4 µM
CC50 [15]: 53.1 µM
CC50 [16]: > 100 µM
CC50 [17]: > 100 µM
CC50 [18]: 64.1 µM
CC50 [19]: 62.5 µM
CC50 [20]: 56.2 µM
GI50 [21]: 1.47 µM
TGI [21]: 4.6e-06 M
Percent Growth ([21]; Log10 Concentration −4.0): −57%
Percent Growth ([21]; Log10 Concentration −5.0): −34%
Percent Growth ([21]; Log10 Concentration −6.0): 67%
Percent Growth ([21]; Log10 Concentration −7.0): 99%
Percent Growth ([21]; Log10 Concentration −8.0): 103%
CC50 [22]: 98.5 µM
CC50 [23]: 56.2 µM
CC50 [24]: 73.1 µM
CC50 [25]: 55.1 µM
CC50 [26]: > 100 µM
CC50 [27]: 7.25 µM
CC50 [28]: > 100 µM
CC50 [29]: 56.5 µM
CC50 [30]: 42.1 µM
CC50 [31]: 70.1 µM
CC50 [32]: 61.1 µM
CC50 [33]: > 100 µM
CC50 [34]: 42 µM
CC50 [35]: 70.9 µM
CC50 [36]: 60.2 µM
CC50 [37]: 62.4 µM
CC50 [38]: 49.5 µM
CC50 [39]: 47.2 µM
CC50 [40]: 48.8 µM
CC50 [41]: 37.3 µM
CC50 [42]: 58.5 µM
CC50 [43]: 65.5 µM
CC50 [44]: 50.7 µM

C=C1C(=O)O[C@H]2[C@H]1CC/C(COC(=O)N1CCN(C)CC1)=C\CC[C@@]1(C)O[C@@H]21 [JVM 2-44]
CC50 [1]: > 100 µM
CC50 [2]: 58.3 µM
CC50 [3]: 49 µM
CC50 [4]: 42.8 µM
CC50 [5]: > 100 µM
CC50 [6]: > 100 µM
CC50 [7]: 76 µM
CC50 [8]: 75.3 µM
CC50 [9]: 54.1 µM
CC50 [10]: 54.1 µM
CC50 [11]: 68.6 µM
CC50 [12]: 80.6 µM
CC50 [13]: > 100 µM
CC50 [14]: 62 µM
CC50 [15]: > 100 µM
CC50 [16]: > 100 µM
CC50 [17]: > 100 µM
CC50 [18]: 88.7 µM
CC50 [19]: 60.1 µM
CC50 [20]: 55.9 µM
GI50 [21]: 3.33 µM
TGI [21]: 1.20E−5
Mean Optical Densities ([21]; Log10 Concentration −4.0): 0.168
Percent Growth ([21]; Log10 Concentration −4.0): −63%
Mean Optical Densities ([21]; Log10 Concentration −5.0): 0.461
Percent Growth ([21]; Log10 Concentration −5.0): 5%
Mean Optical Densities ([21]; Log10 Concentration −6.0): 0.705
Percent Growth ([21]; Log10 Concentration −6.0): 99%
Mean Optical Densities ([21]; Log10 Concentration −7.0): 0.680
Percent Growth ([21]; Log10 Concentration −7.0): 89%
Mean Optical Densities ([21]; Log10 Concentration −8.0): 0.702
Percent Growth ([21]; Log10 Concentration −8.0): 98%
CC50 [22]: > 100 µM
CC50 [23]: 72.3 µM
CC50 [24]: > 100 µM
CC50 [25]: 69.9 µM
CC50 [26]: > 100 µM
CC50 [27]: 8.2 µM
CC50 [28]: > 100 µM
CC50 [29]: 67 µM
CC50 [30]: 44.3 µM
CC50 [31]: 71.9 µM
CC50 [32]: > 100 µM
CC50 [33]: > 100 µM
CC50 [34]: 48.7 µM
CC50 [35]: > 100 µM
CC50 [36]: 75.7 µM
CC50 [37]: 82.3 µM
CC50 [38]: 47.6 µM
CC50 [39]: 56.5 µM
CC50 [40]: 61.2 µM
CC50 [41]: 48.6 µM
CC50 [42]: 69.7 µM
CC50 [43]: 82.4 µM
CC50 [44]: 56.6 µM
